The values that follow come from paper PMC5775417 (Scientific Reports, 2018).

Several values for one entry are separate records, joined by “and”; a condition that tells them apart may be missing. Equal entries are not always repeated. Entries after “also recorded” stand apart in the source; their conditions may differ. Where two headings read alike, the source gives them in different places.

Experiment [1] relates to D2R Tyr^7.43 to cysteine mutant. The following applies: cited from earlier work.
Experiment [2] deals with T1, E95^2.65A c-myc-D2LR (Homo sapiens, UniProt P14416, E95A).
T1 construct: expressed in transfected cells
Description: [3H]spiperone competition binding, membranes of Flp-In CHO cells. The following applies: for Ki / α (cooperativity factor with [3H]spiperone) / logα (logarithm of the cooperativity factor between the modulator and [3H]spiperone) / Kb: E95A; for Ki: 100 µM GppNHp; for fold decrease in affinity at E95A mutant in the absence of Na+ vs E95A in the presence of Na+: 100 mM NMDG vs 100 mM NaCl; for Kb: allosteric ternary complex model. As for the experimental part: (§1) Flp-In CHO cells (Invitrogen) were transfected with the pOG44 vector encoding Flp recombinase and the pDEST vector encoding the wild-type or mutant c-Myc-D2LR at a ratio of 9:1 using polyethylenimine (Polysciences, Warrington, PA) as transfection reagent. 24 hours after transfection the cells were subcultured and the medium was supplemented with 700 μg/ml hygromycin B as selection agent to obtain cells stably expressing the c-Myc-D2LR. FlpIn CHO cells stably expressing the wild-type or mutant c-Myc-D2LR were grown in Dulbecco’s modified Eagle’s medium (DMEM) supplemented with 10% fetal bovine serum and 200 µg/mL of Hygromycin-B, and maintained at 37 °C in a humidified incubator containing 5% CO2. When cells were approximately 90% confluent, they were harvested and centrifuged (300 g, 3 min, 4 °C). The resulting pellet was resuspended in assay buffer either in the presence (20 mM HEPES, 100 mM NaCl, 6 mM MgCl2, 1 mM EGTA, and 1 mM EDTA, pH 7.4) or absence (20 mM HEPES, 100 mM NMDG, 6 mM MgCl2, 1 mM EGTA, and 1 mM EDTA, pH 7.4) of sodium ions. The centrifugation procedure was repeated. The intact cell pellet was then resuspended in assay buffer and homogenized using a Polytron homogenizer for three 10 s intervals on the maximum setting, with 30 s periods on ice between each burst. The homogenate volume was brought up to 30 mL, the sample was centrifuged (350 g, 5 min, 4 °C), the pellet was discarded, and the supernatant was centrifuged at 30 000 g for 1 hr at 4 °C. The resulting pellet was resuspended in 5 mL of assay buffer, and the protein content was determined using the bicinchoninic acid assay (BCA assay). The homogenate was then separated into 500 µl aliquots and stored at −80 °C until it was required for binding assays.
(§2) Binding was terminated by fast-flow filtration over GF/B membranes using a Brandel harvester followed by three washes with ice-cold 0.9% NaCl. Bound radioactivity was measured in a Tri-Carb 2900TR liquid scintillation counter (PerkinElmer).
(§3) Values of α > 1 denote positive cooperativity, values < 1 (but > 0) denote negative cooperativity and values = 1 denote neutral cooperativity.
(§4) IC50 values obtained from the inhibition curves were converted to Ki values using the Cheng and Prusoff equation[35].

Experiment [3] addresses T2, D80^2.50A c-myc-D2LR (Homo sapiens, UniProt P14416, D80A).
T2 construct: expressed in transfected cells
The description is as above. The following applies: for Ki / logα (logarithm of the cooperativity factor between the modulator and [3H]spiperone) / α (cooperativity factor with [3H]spiperone) / Kb: D80A; for Ki: 100 µM GppNHp; for Kb: allosteric ternary complex model. As for the experimental part:
as §1, §2, §3, §4

The target of experiment [4] is T3, WT c-myc-D2LR (Homo sapiens, UniProt P14416).
T3 construct: expressed in transfected cells
The experiment is described as above. The following applies: for fold loss in affinity in the absence of Na+ vs presence of Na+: WT D2LR, 100 mM NMDG vs 100 mM NaCl; for Ki / α (cooperativity factor with [3H]spiperone) / logα (logarithm of the cooperativity factor between the modulator and [3H]spiperone) / Kb: WT. The protocol: as §1, §2, §3, §4

The mark [5] stands for this setting: 100 mM NMDG (no Na+), 0.15 nM [3H]spiperone, read-out: Ki (converted).
Setting [6] is: 100 mM NaCl, 0.15 nM [3H]spiperone, read-out: pKi (converted).
The mark [7] stands for this setting: 100 mM NaCl, 0.15 nM [3H]spiperone, read-out: Ki (converted).
Where [8] appears, read: 100 mM NMDG (no Na+), 0.15 nM [3H]spiperone, 100 µM GppNHp, read-out: pKi (converted).
Where [9] appears, read: 100 mM NaCl, 0.15 nM [3H]spiperone, 100 µM GppNHp, read-out: pKi (converted).
Where [10] appears, read: 100 mM NMDG (no Na+), 0.15 nM [3H]spiperone.
[11] abbreviates: 100 mM NMDG (no Na+), 0.15 nM [3H]spiperone, ND = no inhibition of [3H]spiperone binding detected.
Setting [12] is: 100 mM NaCl, 0.15 nM [3H]spiperone.
[13] abbreviates: 100 mM NMDG (no Na+), 0.5 nM [3H]spiperone.
Setting [14] is: 100 mM NaCl, 0.5 nM [3H]spiperone.

T3 sequence (P14416 whole entry): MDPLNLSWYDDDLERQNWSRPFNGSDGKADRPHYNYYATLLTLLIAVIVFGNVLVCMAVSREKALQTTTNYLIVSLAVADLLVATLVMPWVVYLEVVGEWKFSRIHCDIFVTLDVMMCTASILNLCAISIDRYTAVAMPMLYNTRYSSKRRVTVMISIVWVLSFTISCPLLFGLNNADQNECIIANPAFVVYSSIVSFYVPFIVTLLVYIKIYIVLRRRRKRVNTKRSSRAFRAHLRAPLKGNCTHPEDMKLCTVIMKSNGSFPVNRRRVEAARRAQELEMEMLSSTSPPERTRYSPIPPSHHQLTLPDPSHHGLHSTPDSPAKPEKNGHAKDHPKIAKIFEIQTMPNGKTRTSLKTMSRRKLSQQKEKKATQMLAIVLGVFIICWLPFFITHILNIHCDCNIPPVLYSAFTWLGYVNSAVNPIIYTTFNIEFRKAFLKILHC
T1 sequence (P14416 whole entry E95A): as the sequence (P14416 whole entry) above, with E95A counted along it
T2 sequence (P14416 whole entry D80A): as the sequence (P14416 whole entry) above, with D80A counted along it

Consider `CN1CN(c2ccccc2)C2(CCN(CCCC(=O)c3ccc(F)cc3)CC2)C1=O` [N-methyl-spiperone], for which the “fold decrease in affinity upon mutation of Tyr^7.43 to cysteine” value in experiment [1] is 3 fold.

For `CCCN1CCc2ccc(C#N)cc2C1` [MIPS1071, 2-propyl-1,2,3,4-tetrahydroisoquinoline-7-carbonitrile], the Ki in experiment [2] (setting [5]) was 7600 nM; in experiment [2] (setting [6]), 1260 nM; in experiment [3] (setting [5]), 7200 nM; in experiment [3] (setting [7]), 9300 nM; in experiment [4] (setting [8]), 12000 nM; in experiment [4] (setting [9]) it was 1260 nM. Moreover, the “fold loss in affinity at E95A mutant vs WT” value in experiment [2] (absence of Na+ (100 mM NMDG)) and in experiment [2] (presence of Na+ (100 mM NaCl)) was “not changed” throughout. The “fold loss in affinity at D80A mutant vs WT” value in experiment [3] (100 mM NaCl) was found to be 7 fold. Moreover, the “fold loss in affinity in the absence of Na+ vs presence of Na+” value (from here on “fold loss in affinity in the absence”) in experiment [4] came out at 9 fold.

Turning to `N#Cc1ccc2c(c1)CN(CC[C@H]1CC[C@H](NC(=O)c3cc4cccc(F)c4[nH]3)CC1)CC2` [MIPS1868], in experiment [2], the “fold by which the WT vs E95A difference in affinity is greater in the presence of Na+ than in the absence of Na+” value (“fold by which the WT vs E95A difference” for short) was determined as 2 fold. Further, in experiment [2], the “fold decrease in affinity at E95A mutant in the absence of Na+ vs E95A in the presence of Na+” value (from here on “fold decrease in affinity at E95A mutant”) stood at 3 fold. The “α (cooperativity factor with [3H]spiperone)” value in experiment [2] (setting [10]) was 0.06; in experiment [2] (setting [12]) it was 0.04; in experiment [3] (setting [10]), 0.13; in experiment [3] (setting [12]), 0.23; in experiment [4] (setting [10]) it was 0.03; in experiment [4] (setting [12]) it was 0.04. The “logα (logarithm of the cooperativity factor between the modulator and [3H]spiperone)” value is −1.24 ± 0.16 in experiment [2] (setting [11]); −1.39 ± 0.11 in experiment [2] (setting [12]); −0.87 ± 0.12 in experiment [3] (setting [10]); −0.62 ± 0.06 in experiment [3] (100 mM NaCl, 0.15 nM [3H]spiperone, ND = no inhibition of [3H]spiperone binding detected); −1.48 ± 0.12 in experiment [4] (setting [11]); −1.45 ± 0.12 in experiment [4] (setting [12]). The Kb in experiment [2] (setting [10]) was 617 nM; in experiment [2] (setting [12]), 212 nM; in experiment [3] (setting [10]), 468 nM; in experiment [3] (setting [12]) it was 631 nM; in experiment [4] (100 mM NMDG (no Na+), allosteric ternary complex model, 0.15 nM [3H]spiperone, read-out: KB (converted)), 631 nM; in experiment [4] (100 mM NaCl, allosteric ternary complex model, 0.15 nM [3H]spiperone, read-out: KB (converted)), 100 nM. For the same molecule, the “fold loss in affinity at E95A mutant vs WT” value in experiment [2] (absence of Na+ (100 mM NMDG)) was “no significant difference; also recorded: no additional effect”; in experiment [2] (presence of Na+ (100 mM NaCl)), 2 fold. In experiment [3] (100 mM NaCl), the “fold loss in affinity at D80A mutant vs WT” value was determined as 6 fold. The “fold loss of negative cooperativity at D80A mutant vs WT” value in experiment [3] (cooperativity with [3H]spiperone) was 4 fold and 6 fold. Besides, the “fold loss in affinity in the absence” value in experiment [4] was 6 fold and 5 fold.

Turning to `CCN1CCCC1CNC(=O)c1cc(S(N)(=O)=O)ccc1OC` (stereo not shown) [sulpiride], the “fold decrease in affinity upon mutation of Tyr^7.43 to cysteine” value in experiment [1] is reported as 185 fold.

Consider `N#Cc1ccc2c(c1)CN(CC[C@H]1CC[C@H](NC(=O)c3cc4ccncc4[nH]3)CC1)CC2` [MIPS1726], for which the “fold by which the WT vs E95A difference” value in experiment [2] is listed as 2 fold. The “fold decrease in affinity at E95A mutant” value in experiment [2] was 7 fold. For the same molecule, the “logα (logarithm of the cooperativity factor between the modulator and [3H]spiperone)” value is recorded as −1.89 ± 0.31 in experiment [2] (setting [13]); −1.91 ± 0.12 in experiment [2] (setting [14]); −2.13 ± 0.27 in experiment [3] (setting [14]); −2.26 ± 0.39 in experiment [4] (setting [13]); −1.90 ± 0.08 in experiment [4] (setting [14]). The “α (cooperativity factor with [3H]spiperone)” value was 0.01 in experiment [2] (setting [13]); 0.01 in experiment [2] (setting [14]); 0.007 in experiment [3] (setting [14]); 0.005 in experiment [4] (setting [13]); 0.01 in experiment [4] (setting [14]). In addition, the Kb in experiment [2] (setting [13]) is 812 nM; in experiment [2] (setting [14]), 123 nM; in experiment [3] (setting [14]), 316 nM; in experiment [4] (0.15 nM [3H]spiperone, radioligand completely displaced, read-out: pKB (converted)), 9.77 nM; in experiment [4] (100 mM NMDG (no Na+), allosteric ternary complex model, 0.5 nM [3H]spiperone, read-out: KB (converted)), 398 nM; in experiment [4] (100 mM NaCl, allosteric ternary complex model, 0.5 nM [3H]spiperone, read-out: KB (converted)), 30 nM and 30.2 nM. Also, the “fold loss in affinity at E95A mutant vs WT” value in experiment [2] (absence of Na+ (100 mM NMDG)) amounted to 2 fold; in experiment [2] (presence of Na+ (100 mM NaCl)) it was 4 fold. For the same molecule, the “fold loss in affinity at D80A mutant vs WT” value in experiment [3] (100 mM NaCl) is reported as greater than 10 fold.

On to `CC(=O)N[C@H]1CC[C@H](CCN2CCc3ccc(C#N)cc3C2)CC1` [MIPS1059, N-((trans)-4-(2-(7-cyano-3,4-dihydroisoquinolin-2(1H)yl)ethyl)cyclohexyl)acetamide], for which, in experiment [2], the “fold by which the WT vs E95A difference” value amounted to 2 fold. Also, in experiment [2], the “fold decrease in affinity at E95A mutant” value is listed as 5 fold. Further, the Ki was 4800 nM in experiment [2] (setting [5]); 1200 nM in experiment [2] (setting [7]); 1150 nM in experiment [2] (setting [6]); 1480 nM in experiment [3] (100 mM NMDG (no Na+), 0.15 nM [3H]spiperone, read-out: pKi (converted)); 1500 nM in experiment [3] (setting [7]); 1510 nM in experiment [3] (setting [6]). The Ki is 1740 nM in experiment [4] (setting [8]); 275 nM in experiment [4] (setting [9]); 275 nM in experiment [4] (100 mM NaCl, complete displacement of [3H]spiperone, read-out: Ki). Moreover, the “fold loss in affinity at E95A mutant vs WT” value in experiment [2] (absence of Na+ (100 mM NMDG)) was 3 fold; in experiment [2] (presence of Na+ (100 mM NaCl)), 5 fold. The “fold loss in affinity at D80A mutant vs WT” value in experiment [3] (100 mM NaCl) is listed as 5 fold. In experiment [4], the “fold loss in affinity in the absence” value is given as 6 fold.
